Results on three compounds are retold here after US20140309974A1 (priority 2013, published 2014).

The subject of series [1] is HSV-1 KOS strain expressing green fluorescent protein (GFP). In words: HSV-1 (KOS, GFP reporter) infection of NIH 3T3 cells, flow cytometry of GFP-positive cells. Type of series: cell-based, herpes simplex virus-1 on NIH 3T3 cells. The note with it: for antiviral effect on HSV-1 infection (in words) / percentage of infected (GFP-positive) cells after treatment: NIH 3T3 cells; for antiviral effect on HSV-1 infection (in words): HSV-1 KOS GFP, flow cytometry / fluorescence images; for percentage of infected (GFP-positive) cells after treatment: MOI about 0.1, about 16 hours, no drug gives about 60%. The procedure: Cell culture: NIH 3T3 cells were grown on 15 cm plates in DMEM supplemented with about 5% Fetalplex and about 1% penicillin/streptomycin and kept in an about 37° C. incubator with about 5% CO2. To propagate cells, the experiments involved plating 107 on each […] plate and splitting the cells every 24 hours. For each experimental iteration, the experiments plated 2×10^5 cells/well in a 24-well plate. To minimize variance generated from different batches of cells, the trial group and crossover group were tested and compared using the same batch of cells for each iteration.
Viral infection: HSV-1 KOS strain expressing green fluorescent protein (GFP) in frame with the ICPO protein between amino acids 104 and 105 was used. The virus was prepared by propagation of virus on a confluent monolayer of Vero cells. Supernatants from infected cells were collected and centrifuged to separate cell debris. The cell pellet in residual medium was frozen and thawed three times at about −80° C. and about 37° C., respectively. The residual supernatant was then pooled together with the original supernatant, and viral titers were determined by a standard plaque assay on Vero cell monolayers. Multiplicity of infection (MOI) of about 0.1 was used throughout except as indicated. To control MOI, cells, virus, and drug combinations were added at the same time and incubated at about 37° C. After about 17 hours, culture medium was aspirated, and cells were detached with PBS-EDTA treatment at about 37° C. for about 5 minutes. Detached cells were transferred to flow cytometry tubes, pelleted, and re-suspended in about 1.6% PFA and kept at about 4° C. until analysis. A BD FACS Canto II was used for flow cytometry analysis.
HSV-1 infectious disease model: HSV-1 infection on an NIH 3T3 fibroblast cell line was used as an in vitro model system to search for new therapeutic drug combinations. The antiviral drugs that are used in the therapeutic model include three antiviral cytokines (IFN-α, IFN-β, and IFN-γ), ribavirin, acyclovir, and TNF-α. Virus-infected cells were treated with single drugs or drug combinations and cultured for about 16 hours. The HSV-1 strain used to infect the NIH 3T3 cells encodes a GFP reporter in infected cells, allowing flow cytometric analysis of cells to measure the rate and extent of infection, because the fluorescence intensity of GFP correlated to the presence of virus. Determination of efficacy of drug treatments was made by comparing the number of GFP-negative non-infected cells in the absence or presence of drug treatment. This value was considered the antiviral readout of a drug treatment.
The infectious dose of HSV-1 used (MOI: number of infectious virions per cell) is an important parameter when evaluating the outcome of potential therapies. […] An MOI of about 0.1 was used throughout the studies.
(Flow cytometry measures light scatter and fluorescence of single cells or particles in a stream.)

The conditions of series [2]: high doses of ribavirin; cited from earlier work.

For `Nc1nc2c(ncn2COCCO)c(=O)[nH]1` [acyclovir], the “viral infection over incubation time, day 1 to day 4 (in words)” value in series [1] (HSV-1-infected cells cultured 1 day to 4 days in presence of drug, flow cytometry) was “remained constant as time increased”. In series [1], the “antiviral effect on HSV-1 infection (in words)” value is “reduced the infection rate, though a large percentage of cells were infected despite drug treatment” and the “percentage of infected (GFP-positive) cells after treatment” value is “about 15%”.
Turning to `NC(=O)c1ncn([C@@H]2O[C@H](CO)[C@@H](O)[C@H]2O)n1` [ribavirin], the reported side effects entry in series [2] was “cause anemia, to be teratogenic in some animal tests, and to inhibit DNA synthesis in a dosage dependent manner”. Moreover, in series [1], the “percentage of infected (GFP-positive) cells after treatment” value was “about 5%”.
Consider TNF-α, for which the “antiviral effect on HSV-1 infection (in words)” value in series [1] is “potentiated HSV-1 infection, resulting in more infected cells than the non-treated control”.
